How the values were obtained:
Felis catus [1] = experiment: In vivo beta-1 adrenergic receptor blocking activity in iv dosed cat assessed as half dose required for desensitizing isoproterenol-induced tachycardia after 3.5 mins; format: functional
Felis catus [2] = experiment: In vivo beta-2 adrenergic receptor blocking activity in iv dosed cat assessed as half dose required for desensitizing isoproterenol-induced diastolic hypotensive response after 3.5 mins; format: functional
Felis catus [3] = experiment: Ratio of in vivo beta-2 adrenergic receptor blocking activity in iv dosed cat assessed as half dose required for desensitizing isoproterenol-induced diastolic hypotensive response to in vivo beta-1 adrenergic receptor blocking activity in iv dosed cat assessed as half dose required for desensitizing isoproterenol-induced tachycardia; format: functional
Canis familiaris = experiment: Antiarrhythmic activity in iv dosed dog assessed as dose required for reversal of ouabain-induced cardiac arrhythmia; format: functional, Canis lupus familiaris, Heart

SMILES | Activity (Felis catus [1]) [mg/kg] | Activity (Felis catus [2]) [mg/kg] | Ratio (Felis catus [3]) | Activity (Canis familiaris) [mg/kg]
CCCCC(=O)Nc1ccc(OCC(O)CNC(C)C)c(C(C)=O)c1 (centres undefined) | 0.033 | 0.89 | 27 | 4.8
CCCCCC(=O)Nc1ccc(OCC(O)CNC(C)C)c(C(C)=O)c1 (centres undefined) | 0.029 | 0.85 | 29.31 | 3.2
CCCCCCC(=O)Nc1ccc(OCC(O)CNC(C)C)c(C(C)=O)c1 (centres undefined) | 0.04 | 0.5 | 12.5 | 2.7
CCC(=O)Nc1ccc(OCC(O)CNC(C)C)c(C(=O)CC)c1 (centres undefined) | 0.026 | 0.41 | 15.77 | 6.4
CCCC(=O)Nc1ccc(OCC(O)CNC(C)C)c(C(=O)CC)c1 (centres undefined) | 0.079 | 1.12 | 14.18 | 6.1
CCCC(=O)Nc1ccc(OCC(O)CNC(C)C)c(C(=O)CCC)c1 (centres undefined) | 0.23 | 4.78 | 20.78 | 3.5
CC(=O)c1cc(NC(=O)C(C)C)ccc1OCC(O)CNC(C)C (centres undefined) | 0.1 | 1.85 | 18.5 | 17.2
CC(=O)c1cc(NC(=O)CC(C)C)ccc1OCC(O)CNC(C)C (centres undefined) | 0.11 | 2.1 | 19.09 | 3.8
CC(=O)c1cc(NC(=O)Cc2ccccc2)ccc1OCC(O)CNC(C)C (centres undefined) | 0.03 | 0.16 | 5.33 | 12.6
CC(=O)c1cc(NC(=O)c2ccccc2)ccc1OCC(O)CNC(C)C (centres undefined) | 0.54 | 1 | – | 5.8
CCC(=O)Nc1ccc(OCC(O)CNC(C)C)c(C(C)=O)c1 (racemic) | 0.063 | 0.52 | 8.25 | 22.5
CCCCCCCC(=O)Nc1ccc(OCC(O)CNC(C)C)c(C(C)=O)c1 (racemic) | 0.05 | 0.692 | 13.84 | 3.9
CCCC(=O)Nc1ccc(OCC(O)CNC(C)C)c(C(C)=O)c1 (centres undefined) [ACEBUTOLOL] | 0.13 | 2.6 | 20 | 8.1
CC(=O)Nc1ccc(OCC(O)CNC(C)C)c(C(C)=O)c1 (centres undefined) [DIACETOLOL] | 0.089 | 0.32 | 3.59 | >15
CC(=O)Nc1ccc(OCC(O)CNC(C)C)cc1 (centres undefined) [PRACTOLOL] | 0.158 | 1.6 | 10.13 | >35

— ChEMBL document CHEMBL3272136, “A new series of cardioselective adrenergic beta-receptor blocking compounds. 1-(2-Acyl-4-acylaminophenoxy)-3-isopropylaminopropan-2-ols” (1976)
